Values joined by “and” are separate entries in the source; they are usually repeats but may differ in a detail not shown here. Identical values can stand only once. ± gives the uncertainty stated by the source.
Assay: xn = mol fraction of the nth substance listed

CC1COC(=O)O1 (stereo not given) + CCCC[n+]1ccn(C)c1.F[B-](F)(F)F
100 kPa, frequency 0.003 MHz
Settings | electrical conductivity [S/m]
296.9 K, x2 = 0.4 | 0.993 ± 0.06
297 K, x2 = 0.6 | 0.747 ± 0.045
297 K, x2 = 0.8 | 0.59 ± 0.035
297.1 K, x2 = 0.2 | 1.26 ± 0.076
297.1 K, x2 = 0.9 | 0.441 ± 0.026
299.9 K, x2 = 0.2 | 1.3 ± 0.078
299.9 K, x2 = 0.4 | 1.04 ± 0.062
299.9 K, x2 = 0.8 | 0.63 ± 0.038
299.9 K, x2 = 0.9 | 0.482 ± 0.029
300 K, x2 = 0.6 | 0.794 ± 0.048
302.5 K, x2 = 0.9 | 0.522 ± 0.031
302.6 K, x2 = 0.2 | 1.32 ± 0.079
302.6 K, x2 = 0.6 | 0.84 ± 0.05
302.6 K, x2 = 0.8 | 0.675 ± 0.041
302.7 K, x2 = 0.4 | 1.08 ± 0.065
305.4 K, x2 = 0.8 | 0.72 ± 0.043
305.4 K, x2 = 0.9 | 0.564 ± 0.034
305.5 K, x2 = 0.2 | 1.34 ± 0.08
305.5 K, x2 = 0.4 | 1.13 ± 0.068
305.6 K, x2 = 0.6 | 0.882 ± 0.053
308.2 K, x2 = 0.2 | 1.36 ± 0.082
308.2 K, x2 = 0.4 | 1.17 ± 0.07
308.2 K, x2 = 0.6 | 0.93 ± 0.056
308.2 K, x2 = 0.8 | 0.759 ± 0.046
308.2 K, x2 = 0.9 | 0.607 ± 0.036
310.9 K, x2 = 0.2 | 1.4 ± 0.084
311 K, x2 = 0.6 | 0.968 ± 0.058
311 K, x2 = 0.8 | 0.803 ± 0.048
311 K, x2 = 0.9 | 0.65 ± 0.039
311.2 K, x2 = 0.4 | 1.21 ± 0.073
313.6 K, x2 = 0.4 | 1.25 ± 0.075
313.6 K, x2 = 0.6 | 1.01 ± 0.06
313.6 K, x2 = 0.8 | 0.846 ± 0.051
313.6 K, x2 = 0.9 | 0.691 ± 0.041
313.9 K, x2 = 0.2 | 1.41 ± 0.084
316.5 K, x2 = 0.6 | 1.05 ± 0.063
316.5 K, x2 = 0.8 | 0.892 ± 0.054
316.6 K, x2 = 0.9 | 0.74 ± 0.044
316.7 K, x2 = 0.2 | 1.43 ± 0.086
316.7 K, x2 = 0.4 | 1.29 ± 0.077
319.2 K, x2 = 0.4 | 1.32 ± 0.079
319.3 K, x2 = 0.6 | 1.1 ± 0.066
319.3 K, x2 = 0.8 | 0.933 ± 0.056
319.5 K, x2 = 0.9 | 0.786 ± 0.047
319.7 K, x2 = 0.2 | 1.45 ± 0.087
322 K, x2 = 0.8 | 0.979 ± 0.059
322 K, x2 = 0.9 | 0.829 ± 0.05
322.2 K, x2 = 0.2 | 1.47 ± 0.088
322.2 K, x2 = 0.4 | 1.35 ± 0.081
322.2 K, x2 = 0.6 | 1.15 ± 0.069
324.8 K, x2 = 0.4 | 1.38 ± 0.083
324.8 K, x2 = 0.8 | 1.02 ± 0.061
324.8 K, x2 = 0.9 | 0.874 ± 0.052
325 K, x2 = 0.6 | 1.18 ± 0.071
325.1 K, x2 = 0.2 | 1.49 ± 0.09
327.4 K, x2 = 0.4 | 1.41 ± 0.084
327.6 K, x2 = 0.6 | 1.22 ± 0.073
327.6 K, x2 = 0.8 | 1.06 ± 0.064
327.6 K, x2 = 0.9 | 0.921 ± 0.055
327.8 K, x2 = 0.2 | 1.51 ± 0.091
330.4 K, x2 = 0.6 | 1.25 ± 0.075
330.6 K, x2 = 0.2 | 1.53 ± 0.092
330.6 K, x2 = 0.4 | 1.44 ± 0.086
330.6 K, x2 = 0.8 | 1.11 ± 0.067
330.6 K, x2 = 0.9 | 0.971 ± 0.058
333.2 K, x2 = 0.4 | 1.46 ± 0.088
333.2 K, x2 = 0.6 | 1.29 ± 0.077
333.2 K, x2 = 0.8 | 1.15 ± 0.069
333.3 K, x2 = 0.9 | 1.01 ± 0.061
333.4 K, x2 = 0.2 | 1.56 ± 0.094
335.9 K, x2 = 0.6 | 1.33 ± 0.08
335.9 K, x2 = 0.8 | 1.19 ± 0.072
335.9 K, x2 = 0.9 | 1.06 ± 0.064
336.1 K, x2 = 0.2 | 1.55 ± 0.093
336.1 K, x2 = 0.4 | 1.49 ± 0.09
338.7 K, x2 = 0.9 | 1.1 ± 0.066
338.8 K, x2 = 0.6 | 1.36 ± 0.082
338.9 K, x2 = 0.8 | 1.24 ± 0.074
339 K, x2 = 0.4 | 1.52 ± 0.091
339.1 K, x2 = 0.2 | 1.58 ± 0.095
341.5 K, x2 = 0.4 | 1.55 ± 0.093
341.6 K, x2 = 0.8 | 1.27 ± 0.076
341.6 K, x2 = 0.9 | 1.16 ± 0.069
341.8 K, x2 = 0.2 | 1.59 ± 0.096
341.8 K, x2 = 0.6 | 1.39 ± 0.084
344.2 K, x2 = 0.4 | 1.59 ± 0.095
344.2 K, x2 = 0.6 | 1.43 ± 0.086
344.3 K, x2 = 0.9 | 1.19 ± 0.072
344.4 K, x2 = 0.2 | 1.62 ± 0.098
344.4 K, x2 = 0.8 | 1.32 ± 0.079
347 K, x2 = 0.6 | 1.47 ± 0.088
347.1 K, x2 = 0.8 | 1.36 ± 0.082
347.1 K, x2 = 0.9 | 1.25 ± 0.075
347.2 K, x2 = 0.2 | 1.64 ± 0.098
347.2 K, x2 = 0.4 | 1.6 ± 0.096
349.6 K, x2 = 0.2 | 1.66 ± 0.099
349.9 K, x2 = 0.9 | 1.3 ± 0.078
350 K, x2 = 0.4 | 1.62 ± 0.097
350 K, x2 = 0.6 | 1.5 ± 0.09
350 K, x2 = 0.8 | 1.4 ± 0.084

viscosity, 100 kPa
Settings | x2 = 0.15 | x2 = 0.2 | x2 = 0.4 | x2 = 0.6 | x2 = 0.8 | x2 = 0.9
298.1 K | – | 6.8 ± 0.7 mPa·s and 6.5 ± 0.7 mPa·s | 14.8 ± 1.5 mPa·s and 14.4 ± 1.5 mPa·s | 32.4 ± 3.3 mPa·s and 32.5 ± 3.3 mPa·s | 45.9 ± 4.6 mPa·s and 46.1 ± 4.7 mPa·s | 55.6 ± 5.6 mPa·s and 55.7 ± 5.7 mPa·s
298.15 K | 5.2 ± 0.2 mPa·s | 6.9 ± 0.3 mPa·s | – | – | – | –
303 K | – | 5.6 ± 0.6 mPa·s | 11.5 ± 1.2 mPa·s | 22.4 ± 2.3 mPa·s | 33.1 ± 3.3 mPa·s | 45.7 ± 4.6 mPa·s
308.1 K | – | 5.1 ± 0.5 mPa·s | 10.1 ± 1 mPa·s | 18.8 ± 1.9 mPa·s | 25.8 ± 2.6 mPa·s | 36.5 ± 3.7 mPa·s
313 K | – | 4.3 ± 0.4 mPa·s | 8.6 ± 0.9 mPa·s | 15.7 ± 1.6 mPa·s | 21.6 ± 2.2 mPa·s | 31 ± 3.1 mPa·s
318.1 K | – | 3.8 ± 0.4 mPa·s | 7.6 ± 0.8 mPa·s | 12.6 ± 1.3 mPa·s | 18.5 ± 1.9 mPa·s | 25.4 ± 2.6 mPa·s
323 K | – | 3 ± 0.3 mPa·s | 6.5 ± 0.7 mPa·s | 10.6 ± 1.1 mPa·s | 16 ± 1.6 mPa·s | 22.1 ± 2.2 mPa·s
328.1 K | – | 2.6 ± 0.3 mPa·s | 5.8 ± 0.6 mPa·s | 9.3 ± 0.9 mPa·s | 14.2 ± 1.4 mPa·s | 19.7 ± 2 mPa·s
333 K | – | 2.4 ± 0.2 mPa·s | 5.4 ± 0.5 mPa·s | 8.2 ± 0.8 mPa·s | 12.4 ± 1.2 mPa·s | 17.2 ± 1.7 mPa·s
338.1 K | – | 2.1 ± 0.2 mPa·s | 4.9 ± 0.5 mPa·s | 7.2 ± 0.7 mPa·s | 10.6 ± 1.1 mPa·s | 15.9 ± 1.6 mPa·s
343 K | – | 2.1 ± 0.2 mPa·s | 4.4 ± 0.4 mPa·s | 6.1 ± 0.6 mPa·s | 9.5 ± 1 mPa·s | 14.3 ± 1.4 mPa·s
348.1 K | – | 2.1 ± 0.2 mPa·s | 3.9 ± 0.4 mPa·s | 5.6 ± 0.6 mPa·s | 8.5 ± 0.9 mPa·s | 13 ± 1.3 mPa·s

O=C1CCCCCN1 + CCCC[N+](CCCC)(CCCC)CCCC.[Cl-]
101 kPa, x1 = 0.5
Settings | electrical conductivity [S/m]
313.15 K | 0.2162 ± 0.0004
315.65 K | 0.257 ± 0.0004
328.15 K | 0.5612 ± 0.0005

— the CheMixHub ionic liquid set
